The values that follow come from ChEMBL document CHEMBL1155227, “Identification of N-(5-tert-butyl-isoxazol-3-yl)-N'-{4-[7-(2-morpholin-4-yl-ethoxy)imidazo[2,1-b][1,3]benzothiazol-2-yl]phenyl}urea dihydrochloride (AC220), a uniquely potent, selective, and efficacious FMS-like tyrosine kinase-3 (FLT3) inhibitor” (J Med Chem, 2009).

The target of data set [1] is T1, Receptor-type tyrosine-protein kinase FLT3 (Homo sapiens, UniProt P36888).
T1 sequence (P36888 whole entry): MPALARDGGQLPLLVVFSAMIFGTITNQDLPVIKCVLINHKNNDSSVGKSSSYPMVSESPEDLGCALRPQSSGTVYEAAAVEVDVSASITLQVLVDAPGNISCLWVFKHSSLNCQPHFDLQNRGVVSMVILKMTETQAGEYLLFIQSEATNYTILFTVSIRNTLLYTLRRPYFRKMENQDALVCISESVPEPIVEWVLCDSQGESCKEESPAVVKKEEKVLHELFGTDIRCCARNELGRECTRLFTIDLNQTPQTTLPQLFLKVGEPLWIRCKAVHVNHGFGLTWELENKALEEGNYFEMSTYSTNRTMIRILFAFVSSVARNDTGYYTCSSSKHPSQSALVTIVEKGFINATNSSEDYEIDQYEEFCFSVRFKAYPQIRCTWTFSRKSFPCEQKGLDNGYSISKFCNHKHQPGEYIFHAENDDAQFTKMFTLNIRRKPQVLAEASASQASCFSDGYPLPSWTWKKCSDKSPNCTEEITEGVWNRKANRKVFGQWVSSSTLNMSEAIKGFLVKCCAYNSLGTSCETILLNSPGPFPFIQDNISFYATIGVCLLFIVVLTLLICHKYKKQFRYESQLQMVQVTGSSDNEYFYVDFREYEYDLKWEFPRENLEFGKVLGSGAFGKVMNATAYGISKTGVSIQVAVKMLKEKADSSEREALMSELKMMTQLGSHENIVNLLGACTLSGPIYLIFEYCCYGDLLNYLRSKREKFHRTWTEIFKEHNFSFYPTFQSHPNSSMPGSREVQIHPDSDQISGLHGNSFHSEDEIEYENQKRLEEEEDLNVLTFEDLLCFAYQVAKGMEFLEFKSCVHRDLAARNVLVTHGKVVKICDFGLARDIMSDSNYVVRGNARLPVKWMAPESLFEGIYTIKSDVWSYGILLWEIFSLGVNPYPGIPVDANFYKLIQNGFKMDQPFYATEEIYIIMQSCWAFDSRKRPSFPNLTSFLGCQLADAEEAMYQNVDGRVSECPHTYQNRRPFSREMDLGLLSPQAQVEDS
The data set is described as follows: biochemical. Type of data set: cell-based, HEK293.
Description: Binding affinity to FLT3 catalytic domain expressed in HEK293 cells by competitive binding assay

In data set [2] the test system is MV4-11. Kind of data set: cells. As to conditions: Homo sapiens, MV4-11, 72 h.
Description: Antiproliferative activity against human MV4-11 cells after 72 hrs by cell titer-blue cell viability assay
Data set [3] can be described thus: in vivo. As to conditions: athymic nude, mouse, po, 10 mg/kg.
Description: Cmax in athymic nude mouse at 10 mg/kg, po
Data set [4] is described as follows: in vivo. Conditions: athymic nude, mouse, plasma, po, 10 mg/kg.
Description: AUC (0 to infinity) in athymic nude mouse at 10 mg/kg, po
Data set [5] in a line: in vivo. Conditions: athymic nude, mouse, po, 10 mg/kg. This is another data set of the same source.
Description: Half life in athymic nude mouse at 10 mg/kg, po

Each structure is given as a SMILES string.

`CCN1CCN(C(=O)CCc2ccc3c(c2)sc2nc(-c4ccc(NC(=O)Nc5cc(C(C)(C)C)on5)cc4)cn23)CC1` returned a Kd in data set [1] of 2 nM. Further, the IC50 in data set [2] is 0.66 nM.
For `CC(C)(C)c1cc(NC(=O)Nc2ccc(-c3cn4c(n3)sc3cc(CCC(=O)N5CCOCC5)ccc34)cc2)no1`, in data set [1], the Kd came to 1.5 nM. This molecule also returned an IC50 in data set [2] of 0.23 nM.
In data set [1], `CC(C)(C)c1cc(NC(=O)Nc2ccc(-c3cn4c(n3)sc3ccccc34)cc2)no1` had a Kd of 1.9 nM. Also, the IC50 in data set [2] was determined as 0.35 nM.
The corresponding values for `CN1CCN(CCCOc2ccc3c(c2)sc2nc(-c4ccc(NC(=O)Nc5cc(C(C)(C)C)on5)cc4)cn23)CC1` are 1.7 nM and 0.78 nM.
The molecule `CC(C)(C)c1cc(NC(=O)Nc2ccc(-c3cn4c(n3)sc3cc(OCCN5CCCCC5)ccc34)cc2)no1` came in with a Kd in data set [1] of 1.5 nM. The same molecule had an IC50 in data set [2] of 0.88 nM.
Regarding `CC(C)(C)c1cc(NC(=O)Nc2ccc(-c3cn4c(n3)sc3cc(OCCCN5CCN(S(C)(=O)=O)CC5)ccc34)cc2)no1`, the Kd in data set [1] was 9.7 nM. This molecule also displayed an IC50 in data set [2] of 1.1 nM. Also, the Cmax in data set [3] stood at 1580 nM. The AUC(0-inf) in data set [4] came to 11.7 µM·h. In data set [5], this molecule showed a half-life of 4.6 h.
`CCN1CCN(Cc2ccc3c(c2)sc2nc(-c4ccc(NC(=O)Nc5cc(C(C)(C)C)on5)cc4)cn23)CC1`: in data set [1], binding was characterised by a dissociation constant (Kd) of 1.1 nM. Further, the midpoint of inhibition in data set [2], the IC50, lay at 0.38 nM.
Regarding `CC(C)(C)c1cc(NC(=O)Nc2ccc(-c3cn4c(n3)sc3cc(CCC(=O)O)ccc34)cc2)no1`, in data set [1], binding was characterised by a dissociation constant (Kd) of 1.3 nM. Besides, in data set [2], the IC50 is 0.41 nM.
The like results for `CC(C)(C)c1cc(NC(=O)Nc2ccc(-c3cn4c(n3)sc3cccc(OCCN5CCOCC5)c34)cc2)no1` were, in that order, 5.2 nM and 9.3 nM.
In data set [1], `CC(C)(C)c1cc(NC(=O)Nc2ccc(-c3cn4c(n3)sc3cc(O)ccc34)cc2)no1` registered a Kd of 2.7 nM. The same molecule yielded an IC50 in data set [2] of 0.15 nM.
In data set [1], `CC(C)(C)c1cc(NC(=O)Nc2ccc(-c3cn4c(n3)sc3cc(CCCN5CCOCC5)ccc34)cc2)no1` yielded a Kd of 1.3 nM. In data set [2], half-maximal inhibition (IC50) required 0.53 nM. Moreover, in data set [3], the Cmax was found to be 2190 nM. Further, the AUC(0-inf) in data set [4] came out at 14.6 µM·h. The half-life in data set [5] was 2.3 h.
Take `CC(C)(C)c1cc(NC(=O)Nc2ccc(-c3cn4c(n3)sc3ccc(OCCN5CCOCC5)cc34)cc2)no1`: the Kd in data set [1] is 2.3 nM. The same molecule registered an IC50 in data set [2] of 0.56 nM.
Consider `CC(C)(C)c1cc(NC(=O)Nc2ccc(-c3cn4c(n3)sc3cc(C(=O)O)ccc34)cc2)no1`, for which the Kd in data set [1] worked out at 1.6 nM. Further, the midpoint of inhibition in data set [2], the IC50, lay at 1 nM. The same molecule returned a Cmax in data set [3] of 2090 nM. For the same molecule, in data set [4], the AUC(0-inf) was determined as 21.3 µM·h. The half-life in data set [5] is 4.5 h.
The like results for `CCN1CCN(C(=O)c2ccc3c(c2)sc2nc(-c4ccc(NC(=O)Nc5cc(C(C)(C)C)on5)cc4)cn23)CC1` were, in that order, 0.98 nM, 0.41 nM, 490 nM, 0.67 µM·h and 6.7 h.
In data set [1], `CC(C)(C)c1cc(NC(=O)Nc2ccc(-c3cn4c(n3)sc3cc(OCCCN5CCOCC5)ccc34)cc2)no1` displayed a Kd of 0.99 nM. For the same molecule, the IC50 in data set [2] was found to be 0.79 nM.
The like results for `CN1CCN(c2ccc3c(c2)sc2nc(-c4ccc(NC(=O)Nc5cc(C(C)(C)C)on5)cc4)cn23)CC1` were, in that order, 1.2 nM and 0.62 nM.
